Test results: patent publication US8975401B2, “Quinazoline based EGFR inhibitors containing a zinc binding moiety” (Curis, Inc., priority 2006, dated 2015)

Each compound was assayed against T1, human EGFR (His672-Ala1210) (Homo sapiens, UniProt P00533) (assay: HTScan EGF Receptor Kinase Assay).
T1 construct: human EGFR (His672-Ala1210); GST (N); purchased Cell Signaling Technologies; host or cells: baculovirus expression system
T1 sequence (P00533 672-1210): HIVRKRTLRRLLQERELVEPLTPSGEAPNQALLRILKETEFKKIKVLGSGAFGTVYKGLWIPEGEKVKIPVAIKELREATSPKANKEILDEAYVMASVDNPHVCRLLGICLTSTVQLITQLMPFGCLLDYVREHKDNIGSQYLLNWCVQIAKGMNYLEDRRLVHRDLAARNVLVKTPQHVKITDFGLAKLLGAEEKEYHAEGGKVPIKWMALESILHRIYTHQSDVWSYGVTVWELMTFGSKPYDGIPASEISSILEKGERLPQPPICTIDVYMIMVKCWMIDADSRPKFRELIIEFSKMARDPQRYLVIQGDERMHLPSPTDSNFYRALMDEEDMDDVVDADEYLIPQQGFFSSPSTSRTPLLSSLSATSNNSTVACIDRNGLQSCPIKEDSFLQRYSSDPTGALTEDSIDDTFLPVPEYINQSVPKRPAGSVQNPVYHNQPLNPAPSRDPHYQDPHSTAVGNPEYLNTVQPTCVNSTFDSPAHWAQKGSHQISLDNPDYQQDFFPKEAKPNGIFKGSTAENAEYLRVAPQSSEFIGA
Type: biochemical
Experimental: The ability of compounds to inhibit receptor kinase (EGFR) activity was assayed using HTSCAN™ EGF Receptor Kinase Assay Kits (Cell Signaling Technologies, Danvers, Mass.). […] The protein was purified by one-step affinity chromatography using glutathione-agarose.
Immediately transfer enzyme from −80° C. to ice. Allowed enzyme to thaw on ice. […] Returned immediately to ice. […] Incubated reaction plate at room temperature for 30 minutes. […] Added 100 μl/well primary antibody. Incubated at room temperature for 60 minutes. […] Added 100 μl/well diluted antibody. Incubated at room temperature for 30 minutes. […] Incubated at room temperature for 5 minutes.
Compound COc1cc2ncnc(Nc3ccc(F)c(Cl)c3)c2cc1OCCC(=O)NO [Compound 2] has an IC50 of less than 100 nM.
With C#Cc1cccc(Nc2ncnc3cc(OC)c(OCCC(=O)NO)cc23)c1 [Compound 8] the IC50 was less than 100 nM.
COc1cc2ncnc(NCc3ccc(F)c(F)c3)c2cc1OCCCCCCC(=O)NO [Compound 87, 7-(4-(3,4-difluorobenzylamino)-7-methoxyquinazolin-6-yloxy)-N-hydroxyheptanamide] showed an IC50 of 100 to 1000 nM.
COc1cc2ncnc(NCc3cccc(Br)c3)c2cc1OCCCCCCC(=O)NO [Compound 89, 7-(4-(3-bromobenzylamino)-7-methoxyquinazolin-6-yloxy)-N-hydroxyheptanamide] showed an IC50 of 100 to 1000 nM.
Compound COc1cc2ncnc(Nc3ccc(F)c(Cl)c3)c2cc1OCCCCC(=O)NO [Compound 4] has an IC50 of less than 100 nM.
Compound C#Cc1cccc(Nc2ncnc3cc(OC)c(NC(=O)CCCCC(=O)NO)cc23)c1 [Compound 43, N^1-(4-(3-ethynylphenylamino)-7-methoxyquinazolin-6-yl)-N^6-hydroxyadipamide] has an IC50 of less than 100 nM.
For Nc1cc(Br)ccc1NC(=O)COc1ccc2ncnc(Nc3ccc(F)c(Cl)c3)c2c1 [Compound 45], the IC50 was 100 to 1000 nM.
COc1cc2ncnc(Nc3ccc(F)c(Cl)c3)c2cc1OCCCC(=O)NO [Compound 3, 4-(4-(3-Chloro-4-fluorophenylamino)-7-methoxyquinazolin-6-yloxy)-N-hydroxybutanamide] showed an IC50 of less than 100 nM.
Work on COc1cc2ncnc(Nc3ccc(F)c(Cl)c3)c2cc1OCCOc1ccc(CC(=O)NO)cc1 [Compound 91] yielded an IC50 of less than 100 nM.
COc1cc2ncnc(N[C@H](C)c3ccccc3)c2cc1OCCCCCC(=O)NO [Compound 77, (R)—N-hydroxy-6-(7-methoxy-4-(1-phenylethylamino)quinazolin-6-yloxy)-hexanamide] showed an IC50 of less than 100 nM.
For C#Cc1cccc(Nc2ncnc3cc(OC)c(OCCCCCC(=O)NO)cc23)c1 [Compound 11, 6-(4-(3-ethynylphenylamino)-7-methoxyquinazolin-6-yloxy)-N-hydroxyhexanamide], the IC50 was less than 100 nM.
Compound COCCOc1cc2ncnc(Nc3ccc(F)c(Cl)c3)c2cc1NC(=O)CCCCC(=O)NO [Compound 69, N^1-(4-(3-chloro-4-fluorophenylamino)-7-(2-methoxyethoxy)quinazolin-6-yl)-N^6-hydroxyadipamide] has an IC50 of less than 100 nM.
With O=C(CCCCCCOc1ccc2ncnc(Nc3ccc(F)c(Cl)c3)c2c1)NO [Compound 18, 7-(4-(3-chloro-4-fluorophenylamino)quinazolin-6-yloxy)-N-hydroxyheptanamide] the IC50 was less than 100 nM.
For C[C@@H](Nc1ncnc2ccc(OCCCCCC(=O)NO)cc12)c1ccccc1 [Compound 50], the IC50 was 100 to 1000 nM.
Work on C#Cc1cccc(Nc2ncnc3ccc(OCCCCCCC(=O)NO)cc23)c1 [Compound 24, 7-(4-(3-ethynylphenylamino)quinazolin-6-yloxy)-N-hydroxyheptanamide] yielded an IC50 of 100 to 1000 nM.
Compound C#Cc1cccc(Nc2ncnc3cc(OC)c(OCCCC(=O)NO)cc23)c1 [Compound 9, 4-(4-(3-ethynylphenylamino)-7-methoxyquinazolin-6-yloxy)-N-hydroxybutanamide] has an IC50 of less than 100 nM.
In the case of COCCOc1cc2ncnc(Nc3ccc(F)c(Cl)c3)c2cc1NC(=O)CCCC(=O)NO [Compound 68, N^1-(4-(3-chloro-4-fluorophenylamino)-7-(2-methoxyethoxy)quinazolin-6-yl)-N^5-hydroxyglutaramide], the IC50 is reported as less than 100 nM.
COc1cc2ncnc(Nc3ccc(F)c(Cl)c3)c2cc1NC(=O)CCCCCCC(=O)NO [Compound 40, N^1-(4-(3-chloro-4-fluorophenylamino)-7-methoxyquinazolin-6-yl)-N^8-hydroxyoctanediamide] showed an IC50 of less than 100 nM.
Compound COc1cc2ncnc(N[C@H](C)c3ccc(F)cc3)c2cc1OCCCCCCC(=O)NO [Compound 81, (R)-7-(4-(1-(4-fluorophenyl)ethylamino)-7-methoxyquinazolin-6-yloxy)-N-hydroxyheptanamide] has an IC50 of 100 to 1000 nM.
For C#Cc1cccc(Nc2ncnc3cc(OCCOC)c(OCCCCCCC(=O)NO)cc23)c1 [Compound 36, 7-(4-(3-Ethynylphenylamino)-7-(2-methoxyethoxy)quinazolin-6-yloxy)-N-hydroxyheptanamide], the IC50 was less than 100 nM.
COc1cc2ncnc(N[C@H](C)c3ccc(Cl)cc3)c2cc1OCCCCCCC(=O)NO [Compound 82, (R)-7-(4-(1-(4-chlorophenyl)ethylamino)-7-methoxyquinazolin-6-yloxy)-N-hydroxyheptanamide] showed an IC50 of 100 to 1000 nM.
In the case of COc1ccc([C@@H](C)Nc2ncnc3cc(OC)c(OCCCCCCC(=O)NO)cc23)cc1 [Compound 83, (R)—N-hydroxy-7-(7-methoxy-4-(1-(4-methoxyphenyl)ethylamino)quinazolin-6-yloxy)-heptanamide], the IC50 is reported as greater than 10000 nM.
In the case of COc1cc2ncnc(NCc3ccc(F)c(Cl)c3)c2cc1OCCCCCCC(=O)NO [Compound 88, 7-(4-(3-chloro-4-fluorobenzylamino)-7-methoxyquinazolin-6-yloxy)-N-hydroxyheptanamide], the IC50 is reported as less than 100 nM.
For C#Cc1cccc(Nc2ncnc3cc(OC)c(NC(=O)CCCC(=O)NO)cc23)c1 [Compound 42, N^1-(4-(3-ethynylphenylamino)-7-methoxyquinazolin-6-yl)-N^5-hydroxyglutaramide], the IC50 was less than 100 nM.
COc1cc2ncnc(Nc3ccc(F)c(Cl)c3)c2cc1OCCOc1ccc(/C=C/C(=O)NO)cc1 [Compound 66, (E)-3-(4-(2-(4-(3-chloro-4-fluorophenylamino)-7-methoxyquinazolin-6-yloxy)ethoxy)phenyl)-N-hydroxyacrylamide] gave an IC50 of less than 100 nM.
In the case of C#Cc1cccc(Nc2ncnc3cc(OC)c(OCC(=O)NO)cc23)c1 [Compound 7, 2-(4-(3-ethynylphenylamino)-7-methoxyquinazolin-6-yloxy)-N-hydroxyacetamide], the IC50 is reported as less than 100 nM.
For COc1cc2ncnc(Nc3ccc(F)c(Cl)c3)c2cc1NC(=O)Nc1ccc(C(=O)NO)cc1 [Compound 93], the IC50 was less than 100 nM.
COc1cc2ncnc(Nc3ccc(F)c(Cl)c3)c2cc1OCC(=O)NO [Compound 1, 2-(4-(3-Chloro-4-fluorophenylamino)-7-methoxyquinazolin-6-yloxy)-N-hydroxyacetamide] showed an IC50 of less than 100 nM.
COc1cc2ncnc(Nc3ccc(F)c(Cl)c3)c2cc1OCCCCCCC(=O)N(C)O [Compound 94] gave an IC50 of less than 100 nM.
For O=C(CCCCCOc1ccc2ncnc(Nc3ccc(F)c(Cl)c3)c2c1)NO [Compound 17, 6-(4-(3-chloro-4-fluorophenylamino)quinazolin-6-yloxy)-N-hydroxy hexanamide], the IC50 was less than 100 nM.
C#Cc1cc(Nc2ncnc3cc(OCCOC)c(OCCCCCCC(=O)NO)cc23)ccc1F [Compound 76] showed an IC50 of less than 100 nM.
With O=C(CCCCOc1ccc2ncnc(Nc3ccc(F)c(Cl)c3)c2c1)NO [Compound 16, 5-(4-(3-chloro-4-fluorophenylamino)quinazolin-6-yloxy)-N-hydroxypentanamide] the IC50 was less than 100 nM.
C#Cc1cccc(Nc2ncnc3ccc(OCCCC(=O)NO)cc23)c1 [Compound 21, 4-(4-(3-ethynylphenylamino)quinazolin-6-yloxy)-N-hydroxybutanamide] was tested, and the IC50 was 100 to 1000 nM.
With COc1cc2ncnc(NCCc3ccccc3)c2cc1OCCCCCCC(=O)NO [Compound 84] the IC50 was 100 to 1000 nM.
C#Cc1cc(Nc2ncnc3cc(OC)c(OCCCCCCC(=O)NO)cc23)ccc1F [Compound 75, 7-(4-(3-ethynyl-4-fluorophenylamino)-7-methoxyquinazolin-6-yloxy)-N-hydroxyheptanamide] gave an IC50 of less than 100 nM.
For COCCOc1cc2ncnc(Nc3ccc(F)c(Cl)c3)c2cc1OCCCCCCC(=O)NO [Compound 30, 7-(4-(3-Chloro-4-fluorophenylamino)-7-(2-methoxyethoxy)quinazolin-6-yloxy)-N-hydroxyheptanamide], the IC50 was less than 100 nM.
In the case of O=C(CCOc1ccc2ncnc(Nc3ccc(F)c(Cl)c3)c2c1)NO [Compound 14], the IC50 is reported as less than 100 nM.
O=C(COc1ccc2ncnc(Nc3ccc(F)c(Cl)c3)c2c1)NO [Compound 13, 2-(4-(3-chloro-4-fluorophenylamino)quinazolin-6-yloxy)-N-hydroxyacetamide] was tested, and the IC50 was less than 100 nM.
Work on C#Cc1cccc(Nc2ncnc3ccc(OCCCCCC(=O)NO)cc23)c1 [Compound 23, 6-(4-(3-ethynylphenylamino)quinazolin-6-yloxy)-N-hydroxyhexanamide] yielded an IC50 of 100 to 1000 nM.
With COc1cc2ncnc(Nc3ccc(F)c(Cl)c3)c2cc1OCCCCCC(=O)NO [Compound 5] the IC50 was less than 100 nM.
COc1cc2ncnc(Nc3ccc(F)c(Cl)c3)c2cc1NC(=O)CCCC(=O)NO [Compound 38, N^1-(4-(3-chloro-4-fluorophenylamino)-7-methoxyquinazolin-6-yl)-N^5-hydroxyglutaramide] showed an IC50 of less than 100 nM.
With C#Cc1cccc(Nc2ncnc3cc(OC)c(NC(=O)CCCCCCC(=O)NO)cc23)c1 [Compound 44, N^1-(4-(3-ethynylphenylamino)-7-methoxyquinazolin-6-yl)-N^8-hydroxyoctanediamide] the IC50 was less than 100 nM.
C#Cc1cccc(Nc2ncnc3ccc(OCCCCC(=O)NO)cc23)c1 [Compound 22] gave an IC50 of less than 100 nM.
For C#Cc1cccc(Nc2ncnc3ccc(OCC(=O)NO)cc23)c1 [Compound 19, 2-(4-(3-ethynylphenylamino)quinazolin-6-yloxy)-N-hydroxyacetamide], the IC50 was less than 100 nM.
